Measurements taken from US5693640A, “Pyridazino-indole derivatives” (Merck, Sharp & Dohme, Ltd., priority 1994, dated 1997).

Tests used:
[1] = target: T1, strychnine-insensitive site present on the NMDA receptor (Rattus norvegicus, UniProt P35439); experiment: Displacement of 3H-L-689,560 binding, rat forebrain membranes; conditions: read-out: concentration required to displace 50% of the specific binding (IC50)
T1 construct: strychnine-insensitive site present on the NMDA receptor of rat forebrain membranes; from tissue; host or cells: rat forebrain membranes
From the text: (§1) The compounds useful in this invention potently and selectively block responses to NMDA and/or AMPA in a brain slice from rat cortex, and inhibit the binding of agonists and antagonists to the strychnine-insensitive site present on the NMDA receptor and/or AMPA binding to rat forebrain membranes.
The ability of test compounds to displace ^3 H-L-689,560 (trans-2-carboxy-5,7-dichloro-4-phenylaminocarbonylamino-1,2,3,4-tetrahydroquinoline) binding to the strychnine-insensitive site present on the NMDA receptor of rat forebrain membranes can be determined by the method of Grimwood et al., Proceedings of the British Pharmacological Society, July 1991, Abstract C78.

NMDA = experiment: Cortical slice studies: responses to NMDA in rat cortical slice; conditions: calculated from righthand shift in the NMDA concentration-response curve, read-out: apparent equilibrium constant (Kb) in response to NMDA
From the text: as §1
The effects of compounds of use in the invention on responses to NMDA and AMPA can be assessed using the rat cortical slice as described by Wong et al., Proc. Natl. Acad. Sci. USA, 1986, 83, 7104. The apparent equilibrium constant (Kb) is calculated from the righthand shift in the NMDA or AMPA concentration-response curves produced by the compound under test.

## O=c1[nH]n(-c2ccccc2)c(=O)c2c1[nH]c1ccccc12 [Example 1, 2-Phenylpyridazino[4,5-b]indole-1,4-dione]
[1]
  IC50: < 50 µM
NMDA
  Kb: < 150 µM
